Patent US5849326A, “Method for treating neuronal diseases via administration of 2-acylaminopropanol derivatives” (Seikagaku Corporation, priority 1993, dated 1998)
Where “and” joins values, the source holds several entries; their conditions need not be identical. Identical values can stand only once.

How the values were obtained:
ICR mice = experiment: General toxicity, continuous 10-day intraperitoneal administration; assay type: in vivo; settings: 100 mg/kg/day intraperitoneally for 10 days
[1] = tested on: primary cultured rat cerebral neurocytes; experiment: Ganglioside content (ganglioside-binding sialic acid) of primary cultured neurocytes; assay type: cell-based; settings: Rattus norvegicus, 72 h, culture for 3 days, control defined as 100%
Procedure: Rat fetuses at the 18th day of pregnancy were taken out, and forebrain base portions of the fetuses were extracted aseptically and cut into small pieces by scissors. After the pieces were treated with papain (in a phosphate buffer containing 0.02% L-cysteine containing 180 U papain, 0.02% bovine serum albumin and 0.5% glucose, pH 7.4, at 37° C. for 30 minutes), they were washed with a mixed solution (DF medium) of 1:1 of a Dulbecco modified Eagle's medium and a Ham's F12 medium and suspended in a DF medium containing 5% bovine fetal serum and 5% equine serum. This neurocyte suspension was charged into a culture plate with 24 wells (Falcon, Primaria) in an amount of 1×10^6 cells/well. […] After completion of the culture, the cells in the respective wells were washed with a phosphate buffer and recovered by rubber policeman. Further, a ganglioside fraction was extracted by adding chloroform/methanol/water (1:2:0.8) and shaking the mixture for 5 minutes. […] The no addition group (control) which was defined as 100% was compared with the test groups, and the results are shown in Table 1.

B16 melanoma cells = experiment: Glycolipid biosynthesis (3H-galactose incorporation into GSL); assay type: cell-based; settings: culture for 24 hours
Procedure: B16 melanoma cells derived from neuroectoderm were charged into a culture plate with 12 wells in an amount of 1×10^5 cells/well and cultured for 24 hours in a Dulbecco modified Eagle's medium containing 10% bovine fetal serum. […] After 24 hours, the medium was removed, the cells were washed with 1 ml of a phosphate buffer containing 0.1% EDTA, 1 ml of 0.25% trypsin was added, and the mixture was left to stand at 37° C. for 5 minutes. […] 4 ml of methanol and chloroform were added successively to the mass of the cells to extract all GSL, followed by evaporation to dryness. The residue was subjected to alkali hydrolysis with chloroform:methanol (1:1) containing 0.2N sodium hydroxide, neutralized with acetic acid and then evaporated to dryness. The product evaporated to dryness was dissolved in water and then desalted with a Sep-Pak C18 cartridge (Waters). The adsorbed GSL was dissolved out by 1 ml of methanol and 4 ml of chloroform:methanol (1:1) and then evaporated to dryness under a nitrogen stream. […] Thereafter, the positions of glucosylceramide, lactosylceramide and ganglioside GM3 were confirmed by iodine coloration, they were scratched off from TLC, respectively, and radioactivities thereof were measured by a liquid scintillation counter.

[2] = tested on: rat cerebral cortex neurocytes; experiment: Synapse formation measured as frequency of intracellular Ca2+ fluctuation; assay type: cell-based
Text: Further, as a method of measuring synapse formation relatively simply and easily, there has been developed a multipoint observation system of Ca^2+ in neurocytes using Fura-2, and it has been confirmed that the number of synapse formation is in direct proportion to frequency of intracellular Ca^2+ fluctuation in synchronization therewith (Br. J. Pharmacol., 89, 191-198, 1986; Neurosci. Lett., 78, 69-74, 1987). We investigated influences of L-threo-FDMP and D-threo-PDMP exerted on synapse formation between rat cerebral cortex neurocytes by using this method, and the results are shown below.

[3] = tested on: LacCer (lactosylceramide) synthase; experiment: Enzyme activity in treated cerebral cortex culture: LacCer synthase; assay type: cell-based, rat; settings: culture treated with 15 μM for 40 hours
Procedure: (§1) After the mixture was cultured for 40 hours, the resulting culture was harvested and pulverized in a homogenized buffer (50 mM Hepes, 0.32M sucrose) by using a chip type sonicator to prepare an enzyme source.
GlcCer as an acceptor substrate was reacted with 0.315mM UDP (uridine diphosphate)-^3 H galactose (2.7×10^8 cpm) as a donor substrate. After the mixture containing ^3 H-LacCer which was a reaction product was developed by a silica gel thin layer plate, a portion corresponding to the reaction product was scratched off, and its radioactivity was counted.

GM3 synthase = experiment: Enzyme activity in treated cerebral cortex culture: GM3 synthase; assay type: cell-based, rat; settings: culture treated with 15 μM for 40 hours
Procedure: as §1
After the mixture containing a reaction product was developed by a reverse phase thin layer plate, a portion corresponding to the reaction product was scratched off, and its radioactivity was counted.

GD3 synthase = experiment: Enzyme activity in treated cerebral cortex culture: GD3 synthase; assay type: cell-based, rat; settings: culture treated with 15 μM for 40 hours; 2400 min, 15 µM
Procedure: as §1
GM3 as an acceptor substrate was reacted with 30 mM CMP-^14 C sialic acid (2.88×10^6 cpm) as a donor substrate. After the mixture containing a reaction product was developed by a reverse phase thin layer plate, a portion corresponding to the reaction product was scratched off, and its radioactivity was counted.

[4] = tested on: serine palmitoyltransferase; experiment: Enzyme activity in treated cerebral cortex culture: serine palmitoyltransferase; assay type: cell-based, rat; settings: culture treated with 15 μM for 40 hours
Procedure: as §1
1.5 mM palmitoyl CoA (coenzyme A) and 0.1 mM ^14 C serine (8.3×10^5 cpm) were reacted in the presence of 0.5 mM pyridoxalphosphoric acid. After 3-keto-sphingosine which was a reaction product was extracted, the extract was concentrated and evaporated to dryness, and its radioactivity was counted.

[5] = tested on: acyl-CoA: sphingosine N-acyltransferase; experiment: Enzyme activity in treated cerebral cortex culture: acyl-CoA: sphingosine N-acyltransferase; assay type: cell-based, rat; set-up: key: *: No accelerating activity; settings: culture treated with 15 μM for 40 hours
Procedure: as §1
0.25 mM sphingosine and 0.45 mM ^14 C palmitoyl CoA (8.3×10^5cpm) were reacted in the presence of ATP (adenosine 5'-triphosphate). After ceramide which was a reaction product was subjected to solvent extraction, the extract was concentrated and evaporated to dryness, and its radioactivity was counted.

[6] = tested on: rat cerebral ischemia models; experiment: Antidementia effect in rat cerebral ischemia models (Example 10); assay type: in vivo; settings: 2×40 mg/kg/day intraperitoneally for 6 days from 24 hours after ischemia; retention trial 12 hours after final administration; 8 rats
Procedure: After 12 hours from the final administration, retention trial was carried out.

GSL = settings: J. Cell. Physiol., vol. 141, pp. 573-583 (1989); cited from earlier work
physchem = settings: physiological saline
[7] = tested on: primary cultured rat cerebral neurocytes (hippocampal neurons); experiment: Neurite extension of primary cultured hippocampal neurocytes
Procedure: Hippocampi of rat brains at the 0th day after birth were extracted aseptically, subjected to enzyme treatment with papain in the same manner as in Example 1 and then washed with a DF medium. […] After culture for 24 hours, the neurocytes were fixed by paraformaldehyde, and a degree of neurite extension was recorded by microphotographs and then observed.

[8] = tested on: cerebral cortexes of rat fetuses (explants); experiment: Explant culture of cerebral cortexes, neurocytes having neurites
Text: The effect of neurite extension by administering the medicine after the culture was judged by measuring the number of neurocytes having neurites existing in the explants (the cultured tissues).

CCCCCCCCCC(=O)N[C@@H](CN1CCOCC1)[C@@H](O)c1ccccc1 [L-threo-PDMP, 1-phenyl-2-decanoylamino-3-morpholino-1-propanol]
decrease in weight / decrease in neutrophile, acidocyte due to suppression of bone marrow (ICR mice; in Myrj 52): neither decrease in weight nor decrease in neutrophile, acidocyte, etc. due to suppression of bone marrow was observed | abnormality on observation for 3 months (ICR mice; observation for 3 months): no abnormality was observed | activity at 20 µM [1]: 127% | concentration at which a pharmaceutical effect has been observed (B16 melanoma cells): 25 µM | number of synapse formation (frequency of intracellular Ca2+ fluctuation) ([2]; FIG. 4): increase in the number of synapse formation depending on a dose | concentration at which a pharmaceutical effect has been observed ([2]; culture for 8 hours, neurocytes of cerebral cortexes of rat fetuses): 40 µM | Accelerating activity when enzyme activity of control is defined as 100%: LacCer synthase [3]: 243.3% | Accelerating activity when enzyme activity of control is defined as 100%: GM3 synthase (GM3 synthase): 197.4% | Accelerating activity when enzyme activity of control is defined as 100%: GD3 synthase (GD3 synthase): 300% and 302.5% | Accelerating activity when enzyme activity of control is defined as 100%: Serine palmitoyltransferase [4]: 148.2% | Accelerating activity when enzyme activity of control is defined as 100%: Acyl-CoA: sphigosine N-acyltransferase [5]: * | rats recovered to a normal level [6]: 50% | biosynthesis of GSL (GSL): has possibility of accelerating biosynthesis of GSL | solubility (physchem): ≤ 500 µg/mL | neurite extension (microphotographs) ([7]; 5 μM, 20 μM and 40 μM, culture for 24 hours, FIG. 2): significant neurite-extending action | lengths of the neurites, statistical processing ([7]; 1 to 40 μM, FIG. 3): accelerates neurite extension with a significant different of P<0.005 | number of neurocytes having neurites in the explants versus group to which no medicine was administered ([8]; 10 μM, cultured for 2 days, medium containing no serum): about one and half times | concentration range in which a pharmaceutical effect has been observed ([8]; culture of cerebral cortex pieces of rat fetuses): 5 to 20 µM
